From US10321683B2, “Insecticidal, miticidal, nematicidal, molluscicidal, microbicidal, or bactericidal composition and method for controlling pest” (NISSAN CHEMICAL INDUSTRIES, LTD., priority 2014, dated 2019)

How the values were obtained:
[1] = test system: third instar larvae of common cutworms; test: Efficacy test for common cutworm (cabbage leaf dip); format: in vivo, Common cutworm (Spodoptera litura); conditions: six days after the treatment
Method: Each of Compound (1) or Compound (2) and the compounds listed in Table 1 was formulated into a 10% emulsifiable concentrate (some compound was formulated into a 25% wettable powder). The formulations were diluted with water containing a spreading agent to prepare chemical solutions of given concentrations. Cabbage leaves were dipped in the chemical solutions for 10 seconds. The dipped cabbage leaves were transferred on filter papers placed in 7 cm petri dishes with one leaf per one petri dish, and the leaves were air dried. After the air drying was completed, the seven third instar larvae of common cutworms were placed in each petri dish and then the petri dishes were placed in an incubator at 25° C. Six days after the treatment, the numbers of dead larvae were checked, and the percentages of dead insects were calculated according to the calculating equation below. Note that the tests were conducted in duplicate. The percentage of dead insects (%)=the number of dead insects/the number of tested insects×100
(§1) To each concentration of chemical solutions, the synergistic effect was calculated from the percentage of dead insects by using Colby's method (Colby S. R. 1976, Weeds 15, 20-22). The calculation method was as follows. E=X+Y−XY/100
(§2) X: an observed value at an x concentration of Chemical A (the percentage of dead insects)
(§3) Y: an observed value at a y concentration of Chemical B (the percentage of dead insects)
(§4) E: the percentage of dead insects expected at the time of a mixed treatment with Chemical A and Chemical B.
(§5) If the observed value was larger than the expected value, there was a synergistic effect; if the expected value was larger than the observed value, there was an antagonist effect; and if the observed value and the expected value were same, there was an additive effect.

[2] = test system: melon thrips female adult insects; test: Efficacy test for melon thrips female adult insect (leaf disk spray); format: in vivo, Melon thrips (Thrips palmi); conditions: 2 days after spraying
Method: (§6) Each of Compound (1) or Compound (2) and the compounds listed in Table 1 was formulated into a 10% emulsifiable concentrate. The formulations were diluted with water to prepare chemical solutions of given concentrations. A styrol cup (having the diameter of the lid of 7.5 cm, and the height of 4 cm) was filled with tap water, and a lid having a hole in its center was placed on the styrol cup, and a filter paper was placed on the lid to absorb tap water. An absorbent cotton (5 cm×5 cm) wetted with tap water was placed on the filter paper, and a leaf disk (having the diameter of 1.7 cm) made of a cucumber leaf was placed on the absorbent cotton. The ten melon thrips female adult insects were placed on the leaf disk. Each of the test containers was treated with a spray solution as was uniformly sprayed by using a spraying apparatus (2.5 ml/cup). Examinations were conducted 2 days after spraying, and the percentages of dead insects were calculated according to the calculating equation below. Note that the tests were conducted in duplicate. The percentage of dead insects (%)=the number of dead insects/the number of tested insects×100
To each concentration of chemical solutions, the synergistic effect was calculated from the percentage of dead insects by using Colby's method (Colby S. R. 1976, Weeds 15, 20-22). The calculation method was as follows. E=X+Y−XY/100 […]

[3] = test system: Western flower thrips larva; test: Efficacy test for Western flower thrips larva (leaf disk spray); format: in vivo, Western flower thrips (Frankliniella occidentalis); conditions: 1 day after spraying
Method: A styrol cup (having the diameter of the lid of 7.5 cm, and the height of 4 cm) was filled with tap water, and a lid having a hole in its center was placed on the styrol cup, and a leaf disk (having the diameter of 1.7 cm) made of a common bean leaf was placed on the lid. Suitable amounts of eggs of Western flower thrips were placed on the leaf disk, and were controlled in a thermostatic chamber for 24 hours to be hatched. Each of Compound (1) or Compound (2) and the compounds listed in Table 1 was formulated into a 10% emulsifiable concentrate. The formulations were diluted with water to prepare chemical solutions of given concentrations. Each of the test containers was treated with a spray solution as was uniformly sprayed by using a spraying apparatus (2.5 ml/cup). Examinations were conducted 1 day after spraying, and the percentages of dead insects were calculated according to the calculating equation below. Note that the tests were conducted in duplicate. The percentage of dead insects (%)=the number of dead insects/the number of tested insects×100
as §1, §2, §3, §4, §5

[4] = test system: sweetpotato whitefly adult insects; test: Efficacy test for sweetpotato whitefly biotype B (leaf disk spray); format: in vivo, Sweetpotato whitefly (Bemisia tabaci) biotype B; conditions: 5 days after spraying
Method: as §6, with “of 3” for “of 1.7”, “a common bean” for “a cucumber”, “cotton.” for “cotton. The ten melon thrips female adult insects were placed on the leaf disk.”, “ml/cup). The 20 sweetpotato whitefly adult insects were placed on the leaf disk, and a mesh lid was placed over the container to prevent escape of the insects.” for “ml/cup).”, “conducted 5” for “conducted 2”, “insects×100 To each concentration of chemical solutions, the synergistic effect was calculated from the percentage of dead insects by using Colby's method (Colby S. R. […], Weeds 15, 20-22). […]” for “insects×100”

[5] = test system: fourth instar larvae of cotton bollworms; test: Efficacy test for cotton bollworm (cabbage leaf dip); format: in vivo, Cotton bollworm (Helicoverpa armigera); conditions: six days after the treatment
Method: Each of Compound (1) or Compound (2) and the compounds listed in Table 1 was formulated into a 10% emulsifiable concentrate (some compound was formulated into a 25% wettable powder). The formulations were diluted with water containing a spreading agent to prepare chemical solutions of given concentrations. Cabbage leaves were dipped in the chemical solutions for 10 seconds. The dipped cabbage leaves were transferred on filter papers placed in 7 cm petri dishes with one leaf per one petri dish, and the leaves were air dried. After the air drying was completed, the seven fourth instar larvae of cotton bollworms were placed in each petri dish, and then, the petri dishes were placed in an incubator at 25° C. Six days after the treatment, the numbers of dead larvae were checked, and the percentages of dead insects were calculated according to the calculating equation below. Note that the tests were conducted in duplicate. The percentage of dead insects (%)=the number of dead insects/the number of tested insects×100
as §1, §2, §3, §4, §5

varroa mites = test: Efficacy test for varroa mite (coated screw bottle); format: in vivo; conditions: 100 μg/tube; 24 hours after placing
Method: The Compound (1) or Compound (2) was adjusted to a given concentration with acetone. After the adjustment, 300 μl of each of the prepared solutions was poured into a 20 ml screw bottle. The solvent was volatilized as the inner surface of the bottle was uniformly coated with the solution, and then the bottle was stored in a cool and dark place overnight. To obtain varroa mites, a blood comb was taken out from a beehive of honey bees on the day before placing of mites, and pupae having varroa mites were taken and placed in a petri dish. The petri dish was stored in an incubator at 34° C. overnight under the total darkness condition, and then only surviving varroa mites were collected. The collected varroa mites were placed in each of the screw bottles that were treated with the above-described chemicals, and the screw bottles were closed with caps. After three hours, the pupae of honey bees were placed in the screw bottles; the screw bottles were closed with caps again, and were stored in an incubator at 34° C. under the total darkness condition. The number of dead insects 24 hours after placing was checked, and the percentages of dead insects were calculated according to the calculating equation below. Note that the tests were conducted in quadruplicate of three in one plot. The percentage of dead insects (%)=the number of dead insects/the number of tested insects×100

## spinetoram [Compound el, reference compound]
[1]; Table 5, 4.4 ppm
  Percentage of Dead Insect (%) Observed Value: 78.6%

## CCc1nc2cc(C)c(Oc3ccc(OC(F)(F)F)cc3)cc2c(OC(=O)OC)c1C [Compound bx, flometoquin, reference compound]
[2]; 2.5 ppm
  Percentage of Dead Insect (%) Observed Value: 52.6%

## CO/N=C\NC(=O)c1ccc(C2=NOC(c3cc(Cl)cc(Cl)c3)(C(F)(F)F)C2)cc1C (stereo not drawn) [Compound (2), (Z)-4-[5-(3,5-dichlorophenyl)-5-trifluoromethyl-4,5-dihydroisoxazole-3-yl]-N-(methoxyiminomethyl)-2-methylbenzamide]
[2]; 5 ppm
  Percentage of Dead Insect (%) Observed Value: 42.1%
[1]; 0.017 ppm
  Percentage of Dead Insect (%) Observed Value: 35.7%
[1]; Table 4, 0.025 ppm
  Percentage of Dead Insect (%) Observed Value: 35.7%
[1]; Table 5, 0.025 ppm
  Percentage of Dead Insect (%) Observed Value: 35.7%
[1]; Table 6, 0.025 ppm
  Percentage of Dead Insect (%) Observed Value: 35.7%
[1]; Table 7, 0.005 ppm
  Percentage of Dead Insect (%) Observed Value: 14.3%
[1]; Table 8, 0.005 ppm
  Percentage of Dead Insect (%) Observed Value: 14.3%
[3]; 1 ppm
  Percentage of Dead Insect (%) Observed Value: 29.5%
[4]; 5 ppm
  Percentage of Dead Insect (%) Observed Value: 36.6%
[5]; 0.125 ppm
  Percentage of Dead Insect (%) Observed Value: 35.7%
Varroa mites
  Percentage of Dead Insect (%): 100%

## O=C1C=C(N(Cc2ccc(Cl)nc2)CC(F)F)CO1 [Compound ci, flupyradifurone, reference compound]
[4]; 25 ppm
  Percentage of Dead Insect (%) Observed Value: 40.5%

## Cc1cc(C(F)(C(F)(F)F)C(F)(F)F)ccc1NC(=O)c1cccc(I)c1C(=O)NC(C)(C)CS(C)(=O)=O [Compound ca, flubendiamide, reference compound]
[5]; 0.025 ppm
  Percentage of Dead Insect (%) Observed Value: 35.7%

## CNC(=O)c1cc(C#N)cc(C)c1NC(=O)c1cc(Br)nn1-c1ncccc1Cl [Compound al, cyantraniliprole, reference compound]
[5]; 0.25 ppm
  Percentage of Dead Insect (%) Observed Value: 42.9%

## spinosad [Compound em, reference compound]
[1]; Table 4, 32 ppm
  Percentage of Dead Insect (%) Observed Value: 60.0%

## CC1(C)[C@H](C(=O)O[C@H](C#N)c2cccc(Oc3ccccc3)c2)[C@@H]1/C=C(\Cl)C(F)(F)F [Compound ar, gamma-cyhalothrin, reference compound]
[1]; 0.5 ppm
  Percentage of Dead Insect (%) Observed Value: 35.7%

## CNC(=O)c1cc(Cl)cc(C)c1NC(=O)c1cc(Br)nn1-c1ncccc1Cl [Compound aa, chlorantraniliprole, reference compound]
[1]; 0.083 ppm
  Percentage of Dead Insect (%) Observed Value: 21.4%

## O=C(NC(=O)c1c(F)cccc1F)Nc1ccc(Oc2ccc(C(F)(F)F)cc2Cl)cc1F [Compound ce, flufenoxuron]
[3]; 20 ppm
  Percentage of Dead Insect (%) Observed Value: 27.2%

## N#Cc1ccc(CC(=NNC(=O)Nc2ccc(OC(F)(F)F)cc2)c2cccc(C(F)(F)F)c2)cc1 (mixture of isomers) [Compound dc, metaflumizone, reference compound]
[1]; Table 6, 1.7 ppm
  Percentage of Dead Insect (%) Observed Value: 53.8%

## Cc1cc(C2=NOC(c3cc(Cl)cc(Cl)c3)(C(F)(F)F)C2)ccc1C(=O)NCC(=O)NCC(F)(F)F (stereo not drawn) [Compound (1), 4-[5-(3,5-dichlorophenyl)-4,5-dihydro-5-(trifluoromethyl)isoxazole-3-yl]-2-methyl-N-[2-oxo-2-[(2,2,2-trifluoroethyl)amino]ethyl]benzamide]
[1]; 0.017 ppm
  Percentage of Dead Insect (%) Observed Value: 28.6%
[5]; 0.125 ppm
  Percentage of Dead Insect (%) Observed Value: 28.6%
Varroa mites
  Percentage of Dead Insect (%): 100%

## Cc1c(COC(=O)[C@@H]2[C@H](/C=C(\Cl)C(F)(F)F)C2(C)C)cccc1-c1ccccc1 (racemic) [Compound q, bifenthrin]
[3]; 20 ppm
  Percentage of Dead Insect (%) Observed Value: 8.5%

## CC(NC(=O)c1cc(Cl)cc(Br)c1NC(=O)c1cc(Br)nn1-c1ncccc1Cl)C1CC1 (stereo not drawn) [Compound am, cyclaniliprole, reference compound]
[1]; Table 7, 0.17 ppm
  Percentage of Dead Insect (%) Observed Value: 7.7%

## tetraniliprole [Compound ey, reference compound]
[1]; Table 8, 1.7 ppm
  Percentage of Dead Insect (%) Observed Value: 64.3%
